Common to all, as to format: functional
Assay [1] is filed under the species Homo sapiens. Put plainly: Antagonism of LTB4 receptor induced CD11b/CD18 adhesion protein up-regulation in human neutrophil.
Assay [2] concerns Cavia porcellus. Put plainly: Potency was evaluated in vivo in a guinea pig model of LTB4-induced airway obstruction upon intravenous administration.
Assay [3] concerns Cavia porcellus. Put plainly: Potency was evaluated in vivo in a guinea pig model of LTB4-induced airway obstruction upon oral administration.

Take `CCCc1c(OCCCOc2cc(O)c(C(C)=O)cc2CC)cccc1OC(CC)C(=O)O` (stereo not drawn): the IC50 in assay [1] was determined as 1940 nM.
In the case of `CCCc1c(OCCCOc2cc(O)c(C(C)=O)cc2CC)cccc1OC(C)C(=O)O` (stereo not drawn), the IC50 in assay [1] amounted to 3270 nM.
With `CCCc1c(OCCCOc2cc(O)c(C(C)=O)cc2CC)ccc2c1OC(C(=O)[O-])CC2.[Na+]` (stereo not drawn), in assay [1], half-maximal inhibition (IC50) required 1600 nM. For the same compound, the ED50 in assay [2] was found to be 0.23 mg/kg; in assay [3], 0.5 mg/kg.
In assay [1], `CCCc1c(OCCCOc2cc(O)c(C(C)=O)cc2CC)cccc1OCC(=O)O` returned an IC50 of 4390 nM.
`CCc1cc(C(C)=O)c(O)cc1OCCCCCC(C)(C)c1nn[nH]n1` [LY-255283]: the values for the ED50 in assay [2] and in assay [3] were 2.8 mg/kg and 11 mg/kg, respectively.
